Results from publication PMC10497752, “Heparins are potent inhibitors of ectonucleotide pyrophosphatase/phospho-diesterase-1 (NPP1) – a promising target for the immunotherapy of cancer” (Frontiers in Immunology, 2023).

Tests used:
human NPP3 = biological target: T1, human NPP3 (Homo sapiens, UniProt O14638); test: NPP3 colorimetric assay, p-Nph-5'-TMP as substrate; assay type: biochemical; conditions: 20 µg/mL (12 µM)
T1 construct: Soluble and purified human NPP3, prepared as previously described; made in house
T1 sequence (O14638 31-875 limits assumed): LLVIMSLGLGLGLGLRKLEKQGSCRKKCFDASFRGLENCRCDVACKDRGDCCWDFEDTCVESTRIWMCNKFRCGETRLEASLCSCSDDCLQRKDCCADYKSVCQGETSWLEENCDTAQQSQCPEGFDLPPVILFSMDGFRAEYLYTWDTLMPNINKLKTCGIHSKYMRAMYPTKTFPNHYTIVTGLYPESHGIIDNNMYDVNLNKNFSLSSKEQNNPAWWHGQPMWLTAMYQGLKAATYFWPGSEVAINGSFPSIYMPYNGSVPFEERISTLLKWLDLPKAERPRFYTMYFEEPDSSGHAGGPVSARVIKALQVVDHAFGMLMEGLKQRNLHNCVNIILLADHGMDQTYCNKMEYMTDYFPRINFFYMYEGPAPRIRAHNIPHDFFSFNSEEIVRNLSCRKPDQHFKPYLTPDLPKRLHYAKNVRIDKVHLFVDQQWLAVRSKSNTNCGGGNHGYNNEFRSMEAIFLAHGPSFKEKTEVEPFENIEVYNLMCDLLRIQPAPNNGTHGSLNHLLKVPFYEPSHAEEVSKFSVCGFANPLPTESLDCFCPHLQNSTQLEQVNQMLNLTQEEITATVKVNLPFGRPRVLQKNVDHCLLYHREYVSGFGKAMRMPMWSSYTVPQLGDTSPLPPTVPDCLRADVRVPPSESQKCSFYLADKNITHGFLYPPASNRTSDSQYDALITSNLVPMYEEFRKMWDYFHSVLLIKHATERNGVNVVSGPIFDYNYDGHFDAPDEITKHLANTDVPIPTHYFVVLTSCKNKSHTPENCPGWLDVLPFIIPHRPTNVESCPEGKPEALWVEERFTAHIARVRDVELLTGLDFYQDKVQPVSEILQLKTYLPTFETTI
Protocol: Compounds 1, 2, 5, 6, and 7 were screened at different concentrations using 400 μM of p-nitrophenyl thymidine monophosphate (p-Nph-5´-TMP) as substrate to study potential inhibition of NPP3 and NPP5 using a colorimetric assay as previously described ([21]). Soluble and purified human NPP3, prepared as previously described ([22]), and human NPP5 ([23]) were diluted in the assay buffer (50 mM TRIS HCl, 2 mM CaCl2, and 0.2 mM ZnCl2, pH 9.00), and 0.09 µg of NPP3, or 0.4 µg of NPP5 were employed. The mixtures were incubated for 30 min at 37°C in case of NPP3, and for 100 min at 37°C in case of NPP5, and the reactions were subsequently terminated by adding 20 μL of 1.0 N aq. NaOH solution. The assay is based on the enzymatic ester hydrolysis of p-Nph-5’-TMP which results in the formation of the yellow p-nitrophenolate anion. The absorption was measured at 400 nm using a BMG PheraStar FS plate reader (BMG Labtech GmbH, Ortenberg, Germany). Each analysis was repeated three times with triplicate measurements.

[1] = test system: U87 human glioblastoma cells; test: U87 cell-based assay, extracellular adenosine formation from ATP (CE-UV); conditions: U-87 MG, 300 µM ATP, 3 h, DP and EHNA, 10 µg/mL (~ 6 µM)
Protocol: U87 human glioblastoma cells were grown in cell culture flasks until reaching a fully covered confluent cell layer. Cells were cultivated at 37°C and 5% CO2 in DMEM with additions of 10% FCS, 1% penicillin/streptomycin and 1% L-glutamine. The cells were rinsed with phosphate-buffered saline (PBS) and detached with EDTA. Thereafter, they were counted by a Cell Counter CASY® 1 Model TT (Schärfe System GmbH, Reutlingen, Germany) to retrieve the number of viable cells, and washed three times with PBS before they were resuspended in Krebs-HEPES buffer at a concentration of 10^6 cells/mL ([37]). Then, 1 mL of cell suspension was transferred into a 24-well plate. The cells were pretreated with the nucleoside transport inhibitor dipyridamole (20 µM) for 30 min ([38]). Adenosine deaminase (ADA) activity was inhibited by the addition of 1 µM of the inhibitor EHNA (erythro-9-amino-β-hexyl-α-methyl-9H-purine-9-ethanol hydrochloride) ([39]). Heparins, their non-anticoagulative analogs, and the known ectonucleotidase inhibitor PSB-POM-141 ([20]) were added. The samples were incubated with 300 µM of ATP for 3 h at 37°C and 5% CO2. […]
The percentage of inhibition of adenosine format ion in U87 cell supernatants by heparin derivatives was calculated from the conversion rate as follows: […]

NPP3 inhibition, selectivity study (human NPP3): no effect
SMILES: CO[C@H]1O[C@H](COS(=O)(=O)O)[C@@H](O[C@@H]2O[C@@H](C(=O)O)[C@@H](O[C@H]3O[C@H](COS(=O)(=O)O)[C@@H](O[C@@H]4O[C@H](C(=O)O)[C@@H](O[C@H]5O[C@H](COS(=O)(=O)O)[C@@H](O)[C@H](O)[C@H]5NS(=O)(=O)O)[C@H](O)[C@H]4O)[C@H](OS(=O)(=O)O)[C@H]3NS(=O)(=O)O)[C@H](O)[C@H]2OS(=O)(=O)O)[C@H](O)[C@H]1NS(=O)(=O)O [Compound 6, Fondaparinux]
inhibition at 10 µg/mL [1]: 60%
